The conditions of series [1]: cited from earlier work.
For series [2], the system named is normal pooled plasma and donor plasma. The experiment in a line: On-chip APTT assay with argatroban titration, plug-based microfluidic device, plasma, 37° C. The class given is biochemical, human.
Another series deals with donor's whole blood. The experiment in a line: On-chip APTT assay with argatroban titration, plug-based microfluidic device, whole blood, 23° C. In kind it is biochemical, human. The following applies: APTT with argatroban / baseline APTT.
For series [3], the system named is activated protein C (aPC). The experiment in a line: Activated protein C (aPC) production from Egg PC lipid coated surfaces with reconstituted thrombomodulin. In kind it is biochemical. From the text: It has been proposed that clot propagation is regulated by thrombomodulin (TM), an inhibitor of clotting located at on the walls of vessels near sites of vascular damage. It has been shown that clot propagation is reduced when TM is homogenously mixed into blood plasma. To mimic the localization of TM on vessel walls, TM was incorporated at the channel walls and tested if this TM was sufficient to stop clot propagation. The inventors incorporated TM into the inert phospholipid surface by forming inert lipid vesicles with reconstituted TM (lipid:TM) and by using the procedure described above to coat the channel walls.
Control experiments verified TM activity on the channel walls was on the same order of magnitude as previously measured for a monolayer of endothelial cells. Measured TM activities are shown in Table 2, which illustrates the quantification of activated protein C (aPC) production from Egg PC lipid coated surfaces with reconstituted thrombomodulin (TM). Corresponding velocities of clot propagation are shown.

The next series concerns human blood plasma. The experiment in a line: Velocity of clot propagation in a microfluidic channel in the absence of flow. In kind it is biochemical. An excerpt:
To test the prediction that clots propagate as a reactive front with a constant velocity, the inventors used a microfluidic system to regulate and observe clotting in human blood plasma. This system was fabricated in poly(dimethylsiloxane) (PDMS).
FIG. 22 illustrates measurement of the propagation of a blood clot through a microfluidic channel in the absence of flow. Clots propagate with a similar velocity, Fv, in the absence and presence of a membrane-bound inhibitor of clotting, thrombomodulin (TM), on the channel wall. FIG. 22a is a schematic drawing of the procedure for initiating and monitoring clot propagation in a microfluidic device. […] FIG. 22b is a fluorescence microphotograph of a microfluidic device showing that lipids with reconstituted TF (lipid-TF) can be localized to a specific section of a channel in a background of inert lipids. FIG. 22c is a time-lapse fluorescence microphotographs showing position of the clot at 0, 40, and 80 min after plasma was introduced into the channel.
Clot initiation and propagation were spatially separated by patterning the walls of the same channel with different phospholipids (FIG. 22a). […] Clotting was monitored using bright-field microscopy to detect fibrin formation and fluorescence microscopy to detect thrombin-induced cleavage of a peptide-modified coumarin dye. […]

The target in a further series is T1, human α-thrombin (Homo sapiens, UniProt P00734).
T1 construct: A fluorogenic substrate for human α-thrombin
Particulars: 37° C., 50 mM Tris-HCl, pH 8.0, 0.15 M NaCl, 1 mM CaCl2, 1 mg/mL BSA; cited from earlier work.

Series [4] concerns normal pooled plasma (NPP). Kind of series: Initiation of clotting on patches of TF-reconstituted bilayers (timescale of reaction, threshold patch size). The class given is biochemical, human. On the procedure:
Reconstituting tissue factor (TF) to obtain clot-promoting vesicles. TF was reconstituted into mixed vesicles of DLPC/PS/Texas Reds DHPE (79.5/20/0.5 mole percents) at a concentration of 1.25 mg/mL in 1×HEPES-buffered saline/Ca^2+ buffer. For experiments in FIGS. 17, 18, and 19 the TF concentration in the vesicle solution was 0.40 nM (TF:lipid ratio of 2.5×10^−7). Assuming that all the TF was incorporated into the vesicles, the calculated surface concentration would be 0.08 fmol/cm^2. For experiments in Table 1, a final concentration of 0.16 nM of TF (TF:lipid ratio of 1×10^−7) was used. After addition of TF to the vesicle solution, the solution was incubated at 37° C. for 30 min and then stored at 12° C. The vesicles were used within 18 hrs.
Generating patches by backfilling clot-promoting lipids into the photo-removed regions of bilayer. To generate the clot-promoting patches, the patterned bilayers were backfilled with 30 μL of the TF-reconstituted vesicle solution (1.25 mg/mL vesicles in PBS buffer) and allowed to incubate for 4 min at room temperature. Phospholipid bilayers containing active TF have been prepared previously (Contino et al., 1994, Biophys. J. 67: 1113-1116 (1994)). Excess vesicles were removed by vigorous rinsing with a solution of NaCl (150 mM). Patterned bilayers were used immediately in clotting experiments.
Recalcifying the blood plasma samples and adding the thrombi-sensitive dye. All blood plasma samples were recalcified by adding a solution of CaCl2 containing the thrombin-sensitive fluorescent dye, Boc-Asp(OBzl)-Pro-Arg-MCA, (CaCl2, 40 mM; NaCl, 90 mM; and Boc-Asp(OBzl)-Pro-Arg-MCA, 0.4 mM). At the start of each experiment, the plasma and the solution containing CaCl2 were mixed 3:1 by volume. Clotting was detected by the appearance of fibrin using bright field microscopy, and by the appearance of fluorescence signal generated when 4-Methyl-Coumaryl-7-Amine (MCA) was cleaved from Boc-Asp(OBzl)-Pro-Arg-MCA by thrombin.
Inhibiting the factor XII pathway with corn trypsin inhibitor. For experiments measuring clot times for the TF pathway (all experiments using phospholipid bilayers and reconstituted TF), the factor XII (contact) pathway was inhibited with corn trypsin inhibitor (CTI). […]
The threshold patch size of donor platelet rich plasma and normal pooled plasma was measured at 24° C. and 37° C. Clot times were measured on patches presenting clotting stimuli (TF-reconstituted bilayers) in arrays containing patches of different sizes (Table 1). In a single experiment, the clot time on seven different patch sizes was measured. […] Clot time vs. patch size for platelet rich plasma (PRP) from donors was measured.

As usually defined, the pKa is the pH at which an ionisable group is half protonated. The term Km denotes the substrate concentration at which the rate is half of its maximum. A word on the kcat: it is the maximal rate divided by the concentration of active sites.

Marks after values point to notes of the source that are not given here.

Take `O=Nc1ccccc1C(=O)O` [2-nitrosobenzoic acid]: in series [1], the pKa is given as less than 4.
On to `CC1CNc2c(cccc2S(=O)(=O)N[C@@H](CCCNC(=N)N)C(=O)N2CC[C@@H](C)C[C@@H]2C(=O)O)C1` (some centres unmarked) [argatroban], for which the APTT ratio result is on record as “about 2.1” in series [2] (argatroban 0.5 μg/mL), 2.7 in series [2] (argatroban 1.0 μg/mL), 2.3 in the series with donor's whole blood (argatroban 0.5 μg/mL) and 2.8 with donor's whole blood (argatroban 1.0 μg/mL).
Turning to thrombomodulin [TM], the aPC production in series [3] (Glass, 37 ° C., TM:Egg PC ratio 1:7560) was 10 pmol min^−1 m^−2; in series [3] (Glass, 37 ° C., TM:Egg PC ratio 1:75600), 0.3 pmol min^−1 m^−2; in series [3] (PDMS, 25 ° C., TM:Egg PC ratio 1:7560) it was 5* pmol min^−1 m^−2; in series [3] (PDMS, 25 ° C., TM:Egg PC ratio 1:75600), 10 pmol min^−1 m^−2. In the series with human blood plasma (Glass, 37 ° C., TM:Egg PC ratio 1:7560, 41 without TM), the “Front Velocity” value is on record as 50 μm min^−1. Moreover, the “Front Velocity (Fv)” value in the series on human blood plasma (PDMS, 25 ° C., TM:Egg PC ratio 1:75600 (lipid:TM=7.6×10^4), 20 without TM) is 24 μm min^−1.
For “t-butyloxycarbonyl-β-benzyl-L-aspartyl-L-prolyl-Larginine-4-methyl-coumaryl-7-amide”, on human α-thrombin, the Km is 11 µM and the kcat was 160 s⁻¹.

B1: tissue factor (protein, UniProt P13726 33-295, looked up)
Tissue factor: SGTTNTVAAYNLTWKSTNFKTILEWEPKPVNQVYTVQISTKSGDWKSKCFYTTDTECDLTDEIVKDVKQTYLARVFSYPAGNVESTGSAGEPLYENSPEFTPYLETNLGQPTIQSFEQVGTKVNVTVEDERTLVRRNNTFLSLRDVFGKDLIYTLYYWKSSSSGKKTAKTNTNEFLIDVDKGENYCFSVQAVIPSRTVNRKSTDSPVECMGQEKGEFREIFYIIGAVVFVVIILVIILAISLHKCRKAGVGQSWKENSPLNVS
modifications: in phospholipid bilayers
notes: human recombinant tissue factor reconstituted in phospholipid bilayers, clotting stimulus
For B1, in series [4] ([TF]=0.16 nM in vesicles), the “threshold patch size, ptr” value is 160±32 μm and the “timescale of reaction, tR” value was 206 s. Further, in series [4] ([TF]=0.40 nM in vesicles), the “threshold patch size, ptr” value amounted to 75±25 μm and the “timescale of reaction, tR” value was determined as 30 s.

Values taken from patent publication US20090104637A1, “Method and Apparatus for Assaying Blood Clotting” (priority 2006, published 2009).
